5 compounds from US20220315621A1, “COMPOSITIONS AND METHODS FOR TREATING CNS DISORDERS” (priority 2017, published 2022) can be followed below.

Molecules are shown by their SMILES.

In the test the target is TBPS binding. As to the kind of experiment: Steroid inhibition of TBPS binding. The following applies: Table II-2; read-out: TBPS IC50 (μm).
Usually IC50 stands for the concentration that gives 50% inhibition. On to `CC(=O)[C@H]1CC[C@H]2[C@@H]3CC[C@H]4C[C@](C)(O)CCC[C@]4(C)[C@H]3CC[C@]12C` [II-D3a, 1-((1S,3aS,3bR,5aS,7R,10aS,10bS,12aS)-7-hydroxy-7,10a,12a-trimethyloctadecahydrocyclohepta[a]cyclopenta[f]naphthalen-1-yl)ethan-1-one], for which the IC50 lay in the range of 1 to 10 µM. In the case of `Cc1nnn(CC(=O)[C@H]2CC[C@H]3[C@@H]4CC=C5CC[C@](C)(O)CC[C@]5(C)[C@H]4CC[C@]23C)n1` [II-F6, 1-((1S,3aS,3bS,8S,10aR,10bS,12aS)-8-hydroxy-8,10a,12a-trimethyl-1,2,3,3a,3b,4,6,7,8,9,10,10a,10b,11,12,12a-hexadecahydrocyclohepta[a]cyclopenta[f]naphthalen-1-yl)-2-(5-methyl-2H-tetrazol-2-yl)ethan-1-one] it was 0.01 to 0.1 µM. In the case of `Cc1nnnn1CC(=O)[C@H]1CC[C@H]2[C@@H]3CC[C@@H]4CC[C@](C)(O)CC[C@@H]4[C@H]3CC[C@]12C` [II-F13, 1-((1S,3aS,3bR,5aR,8S,10aS,10bR,12aS)-8-hydroxy-8,12a-dimethyloctadecahydrocyclohepta[a]cyclopenta[f]naphthalen-1-yl)-2-(5-methyl-1H-tetrazol-1-yl)ethan-1-one] it was 1 to 10 µM; in that of `CC(=O)[C@H]1CC[C@H]2[C@@H]3CC[C@@H]4CC(=O)CCC[C@@H]4[C@H]3CC[C@]12C` [II-E7b, (1 S,3aS,3bR,5aR,10aS,10bR,12aS)-1-acetyl-12a-methylhexadecahydrocyclohepta[a]cyclopenta[f]naphthalen-7(1H)-one], 1 to 10 µM. Turning to `Cc1nnnn1CC(=O)[C@H]1CC[C@H]2[C@@H]3CC[C@H]4CC[C@](C)(O)CC[C@]4(C)[C@H]3CC[C@]12C` [II-C10, 1-((1S,3aS,3bR,5aS,8S,10aS,10bS,12aS)-8-hydroxy-8,10a,12a-trimethyloctadecahydrocyclohepta[a]cyclopenta[f]naphthalen-1-yl)-2-(5-methyl-1H-tetrazol-1-yl)ethan-1-one], the IC50 was in the range of 0.1 to 1 µM.
